Bridge positions count the residues as written; N and C are the ends. Square brackets hold non-standard residues; d marks the D form. Peptide text beside a SMILES is read from it. * marks the point of attachment. Phe(4-COOH) = N[C@@H](Cc1ccc(C(=O)O)cc1)C(=O)O; Bip = N[C@@H](Cc1ccc(-c2ccccc2)cc1)C(=O)O; Phe(3-Me) = Cc1cccc(C[C@H](N)C(=O)O)c1; Pro(4R-NH2) = N[C@H]1CN[C@H](C(=O)O)C1; hArg = N=C(N)NCCCC[C@H](N)C(=O)O; 4Pal = N[C@@H](Cc1ccncc1)C(=O)O; Cha = N[C@@H](CC1CCCCC1)C(=O)O; Cit = NC(=O)NCCC[C@H](N)C(=O)O; Carboxymethyl = O=C(O)C*; Orn = NCCC[C@H](N)C(=O)O; Aun = NCCCCCCCCCCC(=O)O; Dab = NCC[C@H](N)C(=O)O; Dap = NC[C@H](N)C(=O)O; AEEA = NCCOCCOCC(=O)O
molecular target: T1, PD-1/PD-L1 interaction (PE-labeled human PD-L1-Ig binding to Jurkat cell line over-expressing human PD-1) (Homo sapiens, UniProt Q15116); assay: Jurkat-PD-1 Cell Binding High-Content Screening Assay (CBA); format: cell-based; conditions: Jurkat cell line over-expressing human PD-1; PE-labeled PD-L1-Ig 20 nM final; read-out: Jurkat hPD1-PDL1 IC50
T1 construct: expressed in transfected cells; host or cells: Jurkat
T1 sequence (Q15116 25-288): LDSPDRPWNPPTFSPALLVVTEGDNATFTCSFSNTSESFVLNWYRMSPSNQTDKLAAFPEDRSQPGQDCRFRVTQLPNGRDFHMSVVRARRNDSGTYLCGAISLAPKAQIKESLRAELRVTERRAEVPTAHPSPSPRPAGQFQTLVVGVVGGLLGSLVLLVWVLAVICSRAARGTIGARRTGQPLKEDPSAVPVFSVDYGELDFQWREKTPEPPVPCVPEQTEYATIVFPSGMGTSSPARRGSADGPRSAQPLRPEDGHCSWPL
Outline: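 Binding of fluorescent PD-L1-Ig (phycoerythrin on Ig tag, 20 nM final, 1 h) measured by high-content imaging of fixed, Hoechst-counterstained Jurkat-hPD-1 cells. Compound added 2 h at 37° C beforehand, in DMEM with 10% fetal calf serum.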

Point of comparison: `CC(C)C[C@H]1NC(=O)[C@H](CCCN)NC(=O)[C@H](C(C)C)NC(=O)[C@H](Cc2ccc(-c3ccccc3)cc2)NC(=O)[C@H](C(C)C)NC(=O)[C@H](Cc2c[nH]c3ccccc23)NC(=O)[C@H](CC(=O)O)NC(=O)[C@H](Cc2ccc(OCC(=O)O)cc2)NC(=O)[C@H](CCCNC(=N)N)NC(=O)CSC[C@@H](C(=O)NCC(=O)NCCOCCOCC(=O)N[C@@H](CCCN)C(=O)NCCCCCCCCCCC(=O)O)NC(=O)[C@H](CCN)NC(=O)[C@H](C(C)C)NC(=O)[C@H](CC2CCCCC2)NC(=O)[C@H](CCN)NC1=O` [Compound 3241] ({CH2CO}-RY(Carboxymethyl)DWV[Bip]V[Orn][dL][Dab][Cha]V[Dab]CG[AEEA][Orn][Aun]-OH; thioether N-14), IC50 11.7 nM. Against it:
- CC(C)C[C@H]1NC(=O)[C@H](CCCN)NC(=O)[C@H](C(C)C)NC(=O)[C@H](Cc2ccc(-c3ccccc3)cc2)NC(=O)[C@H](C(C)C)NC(=O)[C@H](Cc2c[nH]c3ccccc23)NC(=O)[C@H](CC(=O)O)NC(=O)[C@H](Cc2ccc(C(=O)O)cc2)NC(=O)[C@H](Cc2ccncc2)NC(=O)CSC[C@@H](C(=O)NCC(=O)NCCOCCOCC(=O)N[C@@H](CCCN)C(=O)NCCCCCCCCCCC(=O)O)NC(=O)[C@H](CN)NC(=O)[C@H](C(C)C)NC(=O)[C@H](CC2CCCCC2)NC(=O)[C@H](CCN)NC1=O [Compound 3234] ({CH2CO}-[4Pal][Phe(4-COOH)]DWV[Bip]V[Orn][dL][Dab][Cha]V[Dap]CG[AEEA][Orn][Aun]-OH; thioether N-14) — 1.6-fold lower, 7.3 nM
- CC(C)C[C@H]1NC(=O)[C@H](CCCN)NC(=O)[C@H](C(C)C)NC(=O)[C@H](Cc2ccc(-c3ccccc3)cc2)NC(=O)[C@H](C(C)C)NC(=O)[C@H](Cc2c[nH]c3ccccc23)NC(=O)[C@H](CC(=O)O)NC(=O)[C@H](Cc2ccc(OCC(=O)O)cc2)NC(=O)[C@H](Cc2ccncc2)NC(=O)CSC[C@@H](C(=O)NCC(=O)NCCOCCOCC(=O)N[C@@H](CCCN)C(=O)NCCCCCCCCCCC(=O)O)NC(=O)[C@H](CCCNC(N)=O)NC(=O)[C@H](C(C)C)NC(=O)[C@H](CC2CCCCC2)NC(=O)[C@H](CCN)NC1=O [Compound 3235] ({CH2CO}-[4Pal]Y(Carboxymethyl)DWV[Bip]V[Orn][dL][Dab][Cha]V[Cit]CG[AEEA][Orn][Aun]-OH; thioether N-14) — 2.1-fold lower, 5.7 nM
- CC(C)C[C@H]1NC(=O)[C@H](CCCN)NC(=O)[C@H](C(C)C)NC(=O)[C@H](Cc2ccc(-c3ccccc3)cc2)NC(=O)[C@H](C(C)C)NC(=O)[C@H](Cc2c[nH]c3ccccc23)NC(=O)[C@H](CC(=O)O)NC(=O)[C@H](Cc2ccc(OCC(=O)O)cc2)NC(=O)[C@H](Cc2ccncc2)NC(=O)CSC[C@@H](C(=O)NCC(=O)NCCOCCOCC(=O)N[C@@H](CCCN)C(=O)NCCCCCCCCCCC(=O)O)NC(=O)[C@H](CCN)NC(=O)[C@H](C(C)C)NC(=O)[C@H](CC2CCCCC2)NC(=O)[C@H](CCN)NC1=O [Compound 3236] ({CH2CO}-[4Pal]Y(Carboxymethyl)DWV[Bip]V[Orn][dL][Dab][Cha]V[Dab]CG[AEEA][Orn][Aun]-OH; thioether N-14) — 3-fold lower, 3.9 nM
- CC(C)C[C@H]1NC(=O)[C@H](CCCN)NC(=O)[C@H](C(C)C)NC(=O)[C@H](Cc2ccc(-c3ccccc3)cc2)NC(=O)[C@H](C(C)C)NC(=O)[C@H](Cc2c[nH]c3ccccc23)NC(=O)[C@H](CC(=O)O)NC(=O)[C@H](Cc2ccc(OCC(=O)O)cc2)NC(=O)[C@H](Cc2ccncc2)NC(=O)CSC[C@@H](C(=O)NCC(=O)NCCOCCOCC(=O)N[C@@H](CCCN)C(=O)NCCCCCCCCCCC(=O)O)NC(=O)[C@H](CCN)NC(=O)[C@H](C(C)C)NC(=O)[C@H](CC2CCCCC2)NC(=O)[C@@H]2C[C@@H](N)CN2C1=O [Compound 3237] ({CH2CO}-[4Pal]Y(Carboxymethyl)DWV[Bip]V[Orn][dL][Pro(4R-NH2)][Cha]V[Dab]CG[AEEA][Orn][Aun]-OH; thioether N-14) — 14-fold higher, 159 nM
- CC(C)C[C@H]1NC(=O)[C@H](CCCN)NC(=O)[C@H](C(C)C)NC(=O)[C@H](Cc2ccc(-c3ccccc3)cc2)NC(=O)[C@H](C(C)C)NC(=O)[C@H](Cc2c[nH]c3ccccc23)NC(=O)[C@H](CC(=O)O)NC(=O)[C@H](Cc2ccc(OCC(=O)O)cc2)NC(=O)[C@H](CCCNC(=N)N)NC(=O)CSC[C@@H](C(=O)NCC(=O)NCCOCCOCC(=O)N[C@@H](CCCN)C(=O)NCCCCCCCCCCC(=O)O)NC(=O)[C@H](CN)NC(=O)[C@H](C(C)C)NC(=O)[C@H](CC2CCCCC2)NC(=O)[C@H](CCN)NC1=O [Compound 3238] ({CH2CO}-RY(Carboxymethyl)DWV[Bip]V[Orn][dL][Dab][Cha]V[Dap]CG[AEEA][Orn][Aun]-OH; thioether N-14) — the same, 11.7 nM
- CC(C)C[C@H]1NC(=O)[C@H](CCCN)NC(=O)[C@H](C(C)C)NC(=O)[C@H](Cc2ccc(-c3ccccc3)cc2)NC(=O)[C@H](C(C)C)NC(=O)[C@H](Cc2c[nH]c3ccccc23)NC(=O)[C@H](CC(=O)O)NC(=O)[C@H](Cc2ccc(C(=O)O)cc2)NC(=O)[C@H](CCCNC(=N)N)NC(=O)CSC[C@@H](C(=O)NCC(=O)NCCOCCOCC(=O)N[C@@H](CCCN)C(=O)NCCCCCCCCCCC(=O)O)NC(=O)[C@H](CN)NC(=O)[C@H](C(C)C)NC(=O)[C@H](CC2CCCCC2)NC(=O)[C@H](CCN)NC1=O [Compound 3239] ({CH2CO}-R[Phe(4-COOH)]DWV[Bip]V[Orn][dL][Dab][Cha]V[Dap]CG[AEEA][Orn][Aun]-OH; thioether N-14) — within 1.5-fold, 11.4 nM
- CC(C)C[C@H]1NC(=O)[C@H](CCCN)NC(=O)[C@H](C(C)C)NC(=O)[C@H](Cc2ccc(-c3ccccc3)cc2)NC(=O)[C@H](C(C)C)NC(=O)[C@H](Cc2c[nH]c3ccccc23)NC(=O)[C@H](CC(=O)O)NC(=O)[C@H](Cc2ccc(OCC(=O)O)cc2)NC(=O)[C@H](CCCNC(=N)N)NC(=O)CSC[C@@H](C(=O)NCC(=O)NCCOCCOCC(=O)N[C@@H](CCCN)C(=O)NCCCCCCCCCCC(=O)O)NC(=O)[C@H](CCN)NC(=O)[C@H](C(C)C)NC(=O)[C@H](CC2CCCCC2)NC(=O)[C@@H]2C[C@@H](N)CN2C1=O [Compound 3242] ({CH2CO}-RY(Carboxymethyl)DWV[Bip]V[Orn][dL][Pro(4R-NH2)][Cha]V[Dab]CG[AEEA][Orn][Aun]-OH; thioether N-14) — 60-fold higher, 700 nM
- CC(C)C[C@H]1NC(=O)[C@H](CCN)NC(=O)[C@H](C(C)C)NC(=O)[C@H](Cc2ccc(-c3ccccc3)cc2)NC(=O)[C@H](C(C)C)NC(=O)[C@H](Cc2c[nH]c3ccccc23)NC(=O)[C@H](CC(=O)O)NC(=O)[C@H](Cc2ccc(C(=O)O)cc2)NC(=O)[C@H](Cc2ccc(OCC(=O)O)cc2)NC(=O)CSC[C@@H](C(=O)N[C@@H](CCN)C(=O)NCCOCCOCC(=O)NCCCCCCCCCCC(=O)O)NC(=O)[C@H](CCCN)NC(=O)[C@H](C(C)C)NC(=O)[C@H](CC2CCCCC2)NC(=O)[C@H](CCN)NC1=O [Compound 3243] ({CH2CO}-Y(Carboxymethyl)[Phe(4-COOH)]DWV[Bip]V[Dab][dL][Dab][Cha]V[Orn]C[Dab][AEEA][Aun]-OH; thioether N-14) — within 1.5-fold, 10.9 nM
- Cc1cccc(C[C@@H]2NC(=O)[C@H](CC(=O)O)NC(=O)[C@H](Cc3ccc(OCC(=O)O)cc3)NC(=O)[C@H](CCCCNC(=N)N)NC(=O)CSC[C@@H](C(=O)N[C@@H](CCN)C(=O)NCCOCCOCC(=O)NCCCCCCCCCCC(=O)O)NC(=O)[C@H](CCCN)NC(=O)[C@H](C(C)C)NC(=O)[C@H](CC3CCCCC3)NC(=O)[C@H](CCN)NC(=O)[C@@H](CC(C)C)NC(=O)[C@H](CN)NC(=O)[C@H](C(C)C)NC(=O)[C@H](Cc3ccc(-c4ccccc4)cc3)NC(=O)[C@H](C(C)C)NC2=O)c1 [Compound 3244] ({CH2CO}-[hArg]Y(Carboxymethyl)D[Phe(3-Me)]V[Bip]V[Dap][dL][Dab][Cha]V[Orn]C[Dab][AEEA][Aun]-OH; thioether N-14) — within 1.5-fold, 10.9 nM
- Cc1cccc(C[C@@H]2NC(=O)[C@H](CC(=O)O)NC(=O)[C@H](Cc3ccc(OCC(=O)O)cc3)NC(=O)[C@H](CCCCNC(=N)N)NC(=O)CSC[C@@H](C(=O)N[C@@H](CCN)C(=O)NCCOCCOCC(=O)NCCCCCCCCCCC(=O)O)NC(=O)[C@H](CCCN)NC(=O)[C@H](C(C)C)NC(=O)[C@H](CC3CCCCC3)NC(=O)[C@H](CCN)NC(=O)[C@@H](CC(C)C)NC(=O)[C@H](CCCN)NC(=O)[C@H](C(C)C)NC(=O)[C@H](Cc3ccc(-c4ccccc4)cc3)NC(=O)[C@H](C(C)C)NC2=O)c1 [Compound 3245] ({CH2CO}-[hArg]Y(Carboxymethyl)D[Phe(3-Me)]V[Bip]V[Orn][dL][Dab][Cha]V[Orn]C[Dab][AEEA][Aun]-OH; thioether N-14) — within 1.5-fold, 11 nM
- Cc1cccc(C[C@@H]2NC(=O)[C@H](CC(=O)O)NC(=O)[C@H](Cc3ccc(OCC(=O)O)cc3)NC(=O)[C@H](CCCCNC(=N)N)NC(=O)CSC[C@@H](C(=O)NCC(=O)NCCOCCOCC(=O)N[C@@H](CCN)C(=O)NCCCCCCCCCCC(=O)O)NC(=O)[C@H](CCCN)NC(=O)[C@H](C(C)C)NC(=O)[C@H](CC3CCCCC3)NC(=O)[C@H](CCN)NC(=O)[C@@H](CC(C)C)NC(=O)[C@H](CCCN)NC(=O)[C@H](C(C)C)NC(=O)[C@H](Cc3ccc(-c4ccccc4)cc3)NC(=O)[C@H](C(C)C)NC2=O)c1 [Compound 3246] ({CH2CO}-[hArg]Y(Carboxymethyl)D[Phe(3-Me)]V[Bip]V[Orn][dL][Dab][Cha]V[Orn]CG[AEEA][Dab][Aun]-OH; thioether N-14) — 2.3-fold higher, 26.5 nM
- Cc1cccc(C[C@@H]2NC(=O)[C@H](CC(=O)O)NC(=O)[C@H](Cc3ccc(OCC(=O)O)cc3)NC(=O)[C@H](CCCCNC(=N)N)NC(=O)CSC[C@@H](C(=O)N[C@@H](CCCN)C(=O)NCCCCCCCCCCC(=O)O)NC(=O)[C@H](CCCN)NC(=O)[C@H](C(C)C)NC(=O)[C@H](CC3CCCCC3)NC(=O)[C@H](CCN)NC(=O)[C@@H](CC(C)C)NC(=O)[C@H](CCCN)NC(=O)[C@H](C(C)C)NC(=O)[C@H](Cc3ccc(-c4ccccc4)cc3)NC(=O)[C@H](C(C)C)NC2=O)c1 [Compound 3247] ({CH2CO}-[hArg]Y(Carboxymethyl)D[Phe(3-Me)]V[Bip]V[Orn][dL][Dab][Cha]V[Orn]C[Orn][Aun]-OH; thioether N-14) — within 1.5-fold, 14.8 nM
